Among the test systems are COLO 205 colon; DLD-1 colon; HOP-92 NSCLC; KM20L2 colon; LOX IMVI melanoma; LXFL 529 NSCLC; OVCAR-5 ovarian; TK-10 renal; UO-31 renal; CCRF-CEM leukemia; SK-OV-3 ovarian.
What all share (assay): NCI anticancer screen, dose series, 48 h

Structures are written as SMILES.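 How tested: cells in 96-well plates exposed to compound for 48 hours at five concentrations. GI50 marks 50% less growth. TGI: concentration producing complete growth inhibition.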

For the compound `Cc1cccc(C(C)(C)C)c1NC(=O)CC1C(=O)Nc2ccccc2S1=O` (stereo unspecified), the TGI with COLO 205 colon was 40.9 µM; in the experiment with DLD-1 colon, over 100 µM; with HOP-92 NSCLC, over 100 µM; in the experiment with KM20L2 colon, over 100 µM; in the experiment on LOX IMVI melanoma it was over 100 µM; in the experiment on LXFL 529 NSCLC, over 100 µM. The TGI with OVCAR-5 ovarian, in the experiment with TK-10 renal and in the experiment on UO-31 renal was over 100 µM throughout.

`N#Cc1nc(-c2cccc(Br)c2)cc(-c2ccc(Nc3nc(N4CCCCC4)nc(N4CCCCC4)n3)cc2)c1N`: the GI50 in the experiment with CCRF-CEM leukemia is 0.587 µM; in the experiment on COLO 205 colon it was 1.99 µM; with HOP-92 NSCLC, 1.68 µM; in the experiment with LOX IMVI melanoma, 1.62 µM; in the experiment with OVCAR-5 ovarian it was 2.06 µM; in the experiment on SK-OV-3 ovarian, 19.1 µM. The GI50 was 1.8 µM in the experiment with TK-10 renal and 1.68 µM with UO-31 renal. The TGI in the experiment on CCRF-CEM leukemia was over 100 µM; in the experiment with COLO 205 colon, 4.64 µM; in the experiment on HOP-92 NSCLC it was 3.36 µM; in the experiment with LOX IMVI melanoma it was 3.01 µM; with OVCAR-5 ovarian it was 4.7 µM; with SK-OV-3 ovarian, over 100 µM. The TGI is 3.47 µM with TK-10 renal and 5.47 µM in the experiment with UO-31 renal.

On to `Cc1cccc2c3c(sc12)C(c1ccc(Cl)cc1)C(C#N)=C(/N=C/c1ccc(Cl)cc1)O3` (stereo unspecified), for which the GI50 in the experiment on CCRF-CEM leukemia is 0.381 µM; in the experiment with COLO 205 colon, 0.456 µM; with HOP-92 NSCLC, 6.04 µM; in the experiment with LOX IMVI melanoma, 0.651 µM; in the experiment on OVCAR-5 ovarian, 0.558 µM; with SK-OV-3 ovarian it was 3.62 µM. Further, the GI50 was 12.2 µM in the experiment with TK-10 renal and 0.653 µM in the experiment on UO-31 renal. For the same compound, the TGI is over 63.7 µM in the experiment with CCRF-CEM leukemia; 36.7 µM in the experiment with HOP-92 NSCLC; over 100 µM in the experiment with LOX IMVI melanoma; over 100 µM in the experiment with OVCAR-5 ovarian; 40 µM with SK-OV-3 ovarian; 51.3 µM with TK-10 renal. In the experiment on UO-31 renal, this compound had a TGI of over 100 µM.

On to `O=C(Nc1ccccc1Cl)c1cnc2ccc(C3CCNCC3)cn12`, for which the GI50 with CCRF-CEM leukemia was over 100 µM; with COLO 205 colon it was 2.85 µM; in the experiment with HOP-92 NSCLC, 0.703 µM; in the experiment with LOX IMVI melanoma, 2.07 µM; with OVCAR-5 ovarian it was 1.9 µM; with SK-OV-3 ovarian, 3.05 µM. Moreover, the GI50 is 1.92 µM with TK-10 renal and 2.13 µM in the experiment on UO-31 renal. The TGI was over 100 µM in the experiment on CCRF-CEM leukemia; 25 µM in the experiment with COLO 205 colon; 7.28 µM in the experiment with HOP-92 NSCLC; 17 µM in the experiment with LOX IMVI melanoma; over 100 µM in the experiment on OVCAR-5 ovarian; over 100 µM in the experiment with SK-OV-3 ovarian. Also, the TGI in the experiment with TK-10 renal was 12.2 µM; in the experiment on UO-31 renal, over 100 µM.

Regarding `C=C1C(=O)O[C@H]2[C@H]1CC/C(COC(=O)NCCc1ccc(OC)cc1)=C\CC[C@@]1(C)O[C@@H]21`, the GI50 was 1.98 µM in the experiment with CCRF-CEM leukemia; 1.94 µM in the experiment on COLO 205 colon; 1.99 µM in the experiment on HOP-92 NSCLC; 1.38 µM in the experiment on LOX IMVI melanoma; 2.65 µM with OVCAR-5 ovarian; 23 µM with SK-OV-3 ovarian. Besides, the values for the GI50 in the experiment on TK-10 renal and with UO-31 renal were 2.73 µM and 1.76 µM, respectively. The TGI was determined as 7.74 µM with CCRF-CEM leukemia; 4.18 µM in the experiment on COLO 205 colon; 6.19 µM with HOP-92 NSCLC; 2.89 µM in the experiment with LOX IMVI melanoma; 8.27 µM in the experiment on OVCAR-5 ovarian; 65.8 µM in the experiment on SK-OV-3 ovarian. For the same compound, the TGI with TK-10 renal turned out to be 7.62 µM; in the experiment on UO-31 renal, 3.26 µM.

For `CC1(C)OC2C(CO)OC(n3ccc(=O)[nH]c3=O)C2O1` (stereo unspecified), the TGI with CCRF-CEM leukemia, in the experiment with COLO 205 colon, in the experiment with HOP-92 NSCLC, in the experiment with LOX IMVI melanoma, with OVCAR-5 ovarian and in the experiment with SK-OV-3 ovarian was over 100 µM each time. Besides, the TGI in the experiment with TK-10 renal and with UO-31 renal was over 100 µM in each case.

In the case of `FC(F)(F)c1ccc2c(c1)N(CCCN1CCN(C3CC3)CC1)c1ccccc1S2`, the GI50 in the experiment with CCRF-CEM leukemia was 9.11 µM; in the experiment on COLO 205 colon it was 9.45 µM; with HOP-92 NSCLC, 13.9 µM; in the experiment with LOX IMVI melanoma it was 13.7 µM; in the experiment with OVCAR-5 ovarian, 13.2 µM; in the experiment on SK-OV-3 ovarian, 12.9 µM. Also, the GI50 with TK-10 renal is 13.8 µM; with UO-31 renal, 8.13 µM. In addition, the TGI was determined as 29.3 µM in the experiment on CCRF-CEM leukemia; 21.5 µM in the experiment with COLO 205 colon; 28.1 µM in the experiment with HOP-92 NSCLC; 28.3 µM in the experiment with LOX IMVI melanoma; 27.6 µM in the experiment with OVCAR-5 ovarian; 26.6 µM in the experiment on SK-OV-3 ovarian. Besides, the TGI with TK-10 renal is 27.2 µM; in the experiment on UO-31 renal, 22.9 µM.

As to `COC(=O)Nc1ccc2ccc3c(NC(=O)OC)ccc4ccc1c2c43` (tested in a mixture with another compound), the GI50 with CCRF-CEM leukemia was 6.04 µM; in the experiment with COLO 205 colon it was 6.08 µM; with HOP-92 NSCLC, 1.62 µM; in the experiment with LOX IMVI melanoma, 6.67 µM; in the experiment on OVCAR-5 ovarian it was 13.9 µM; in the experiment on SK-OV-3 ovarian it was 11.6 µM. Also, the figures for the GI50 in the experiment on TK-10 renal and in the experiment with UO-31 renal were 16.9 µM and 5.21 µM, respectively. Further, the TGI in the experiment with CCRF-CEM leukemia is over 50 µM; in the experiment on COLO 205 colon, 30.5 µM; with HOP-92 NSCLC, 14.1 µM; with LOX IMVI melanoma, 19 µM; in the experiment with OVCAR-5 ovarian, over 50 µM; in the experiment with SK-OV-3 ovarian, over 50 µM. Besides, the TGI in the experiment with TK-10 renal is over 50 µM; with UO-31 renal it was 18.3 µM.

`C[C@]12CC[C@H]3[C@@H](CCC4=CC(=O)CC[C@@H]43)[C@@H]1CC[C@@H]2OC1(O)C(=O)c2ccccc2C1=O`: the TGI was over 100 µM with CCRF-CEM leukemia; 53 µM with COLO 205 colon; over 100 µM in the experiment on HOP-92 NSCLC; over 100 µM in the experiment on LOX IMVI melanoma; over 100 µM with OVCAR-5 ovarian; over 100 µM in the experiment with SK-OV-3 ovarian. In addition, the TGI with TK-10 renal was over 100 µM; in the experiment with UO-31 renal, 78.3 µM.

As for `CCOC(=O)c1cc2c(cc1Cl)SC(N(c1ccc(F)cc1)S(=O)(=O)c1ccc(OC)cc1)=NS2(=O)=O`, the GI50 with CCRF-CEM leukemia is 1.31 µM; in the experiment on COLO 205 colon, 12.5 µM; in the experiment with HOP-92 NSCLC, 4.81 µM; in the experiment with LOX IMVI melanoma, 12.9 µM; in the experiment with OVCAR-5 ovarian, 32.4 µM; in the experiment with SK-OV-3 ovarian, 24.3 µM. The GI50 is 18.8 µM in the experiment with TK-10 renal and 17.9 µM in the experiment on UO-31 renal. Besides, the TGI is 54.2 µM in the experiment on CCRF-CEM leukemia; 27.6 µM in the experiment with COLO 205 colon; 19.2 µM in the experiment on HOP-92 NSCLC; 25.6 µM with LOX IMVI melanoma; 71 µM in the experiment on OVCAR-5 ovarian; over 100 µM in the experiment on SK-OV-3 ovarian. The TGI with TK-10 renal amounted to 54.5 µM; with UO-31 renal it was 42.2 µM.

The values above are taken from PubChem BioAssay (NCI).
